Results from patent US9907309B2 (priority 2010, dated 2018).
Where two headings read alike, the source gives them in different places.

Columns and labels:
Conditions in all cases: solo, growth at 405 nm 7 days after inoculation
Phytophtora infestans = type: cell-based
Septoria tritici = test system: Septoria tritici
Alternaria solani = test system: Alternaria solani

C[C@]1(COC(=O)C2CC2)[C@@H]2C[C@H](O)[C@@]3(C)Oc4cc(-c5cccnc5)oc(=O)c4[C@H](O)[C@@H]3[C@@]2(C)CC[C@@H]1OC(=O)C1CC1 [Compound I, [(3S,4R,4aR,6S,6aS,12R,12aS,12bS)-3-(cyclopropanecarbonyloxy)-6,12-dihydroxy-4,6a,12b-trimethyl-11-oxo-9-(pyridin-3-yl)-1,2,3,4,4a,5,6,6a,12a,12b-decahydro-11H,12H-benzo[f]pyrano[4,3-b]chromen-4-yl]methyl cyclopropanecarboxylate]
Observed efficacy (Phytophtora infestans; 4 ppm): 6% | Observed efficacy (Septoria tritici; 4 ppm): 0% | Observed efficacy (Septoria tritici; 63 ppm): 0% | Observed efficacy (Alternaria solani; 1 ppm): 0%

COC(=O)N(OC)c1ccccc1COc1ccn(-c2ccc(Cl)cc2)n1 [Pyraclostrobin, pyraclostrobin]
Observed efficacy (Phytophtora infestans; 0.063 ppm): 28% | Observed efficacy (Septoria tritici; 0.004 ppm): 63% | Observed efficacy (Alternaria solani; 0.001 ppm): 16%

Cn1cc(C(=O)Nc2ccccc2-c2cc(F)c(F)c(F)c2)c(C(F)F)n1 [Fluxapyroxad, fluxapyroxad]
Observed efficacy (Septoria tritici; 0.063 ppm): 54%
